Entries after “also recorded” stand apart in the source; their conditions may differ.
Key:
honeybees [1] = assay: Appetency of the honeybees (consumption of syrup in small cases, batches of 100 honeybees); assay type: in vivo; conditions: for Appetency, absolute value / Appetency, 1/1 COPPER GLUCONATE: with pollen, mean ± SD; for Appetency, absolute value: pure sugar syrup 21.13±6.31; for Appetency, 1/1 COPPER GLUCONATE: 1/1 with copper gluconate; for Appetency, RELATIVE VALUES / PURE SUGAR SYRUP, AVERAGE / Appetency, RELATIVE VALUES / PURE SUGAR SYRUP, TEST 1 / Appetency, RELATIVE VALUES / PURE SUGAR SYRUP, TEST 2: relative to pure sugar syrup; for Appetency, RELATIVE VALUES / PURE SUGAR SYRUP, AVERAGE: average of tests; for Appetency, RELATIVE VALUES / PURE SUGAR SYRUP, TEST 1: test 1 (first concentration tested); for Appetency, RELATIVE VALUES / PURE SUGAR SYRUP, TEST 2: test 2 (second concentration tested)
Source text: It should be noted that the pollen has been made available to the honeybees in a sufficient amount inside the small cases, without being admixed to the syrup. The determinations have been performed every day and the length of the vertical bars of the diagrams hereabove, are proportional to the deviation of the observed results. They evidence a clearly higher […] case of the utilization of the compounds of this invention. […] The results of these tests are gathered in Table 7 hereinafter in which the figures correspond to measures performed on honeybees placed in small cases, having pollen to their disposal, and are means expressed in microliters per honeybee and per day for N countings.

honeybees [2] = assay: Phagoinhibitive action on food intake by the honeybees (small cases, 100 honeybees, syrup with copper sulphate); assay type: in vivo; conditions: FIG. 1; absorption in ml/bee/day vs g/l copper sulphate
Source text: The obtained results as shown under FIG. 1 have been obtained from studies carried out in the laboratory, on batches of 100 honeybees each, located in small coops called small cases (logettes) in the absence of queen bees. The feeding made available to the honeybees, is placed in a graduated tube which allows the measurement of the ingested amount every day. The experiments have been carried out simultaneously with various small cases each receiving for the feeding of the honeybees a syrup of sucrose at 2 kg for 1 l water (i.e. 66% weight/weight) containing variable amounts of copper sulphate.

Solubility in water = conditions: for water solubility: 20° C.
honeybees [3] = assay: Biological activity / metabolism of honeybees and productivity of hives; conditions: in vivo
Varroa jacobsoni = assay: Action against Varroa jacobsoni in full-size hives: counting of fallen/remaining Varroas, efficiency; assay type: in vivo; conditions: for FALL OF THE VARROAS: 4 hives, mean ± SD
Experimental: Each hive was provided at its lower part with a plastic plate coated with a consistent grease. Each day at the same time, the plate was discarded and the counting of the Varroas fallen on the plate, was carried out. A grid surmounting this plate avoid that the honeybees may spontaneously proceed with the discharge of the Varroas.
The results shown in FIG. 2 have been obtained following experiments performed at full size in hives containing from 20,000 to 50,000 honeybees.
2°--The efficiency of the treatment has been defined as the ratio between the number of Varroas subsiding in the various colonies of an apiary after treatment by solutions at various concentrations, and the number of Varroas contained in the control hives, these two figures have been measured after treatment with Amitraze.
This experiment has been carried out in a series of 14 hives and the result thereof are compiled in the Table 3 figuring herein after.
These experiments allow to obtain the results of Table 3 above, and were carried out in full size on a set of 14 hives.
Measurements of the falls of the Varroas have been performed, at first, every day then every three days starting from the initiation of the delivery of the syrup.
To this end, a plate coated with a consistent grease was arranged at the bottom of each hive and protected with a grid as above-mentioned, in order to allow the counting of the Varroas. The fall begins to be significative in relation to the control hives which have only been given pure sugar syrup, after absorption by the honeybees of 3 liters of syrup per hive in 10 days.
The counting of the remaining Varroas has been performed 2 days after the last delivery of syrup while submitting each hive to a treatment of shock by means of an acaricide (in these circumstances the marketed composition sold under the Tread Name AMITRAZE).
The averages and the standard deviations have been calculated for the number of performed measures corresponding to the number of hives, this figure being mentioned between hyphens following the figures of the third column in Table 3.

[4] = tested on: glycosemia in the honeybees; assay: Glycosemia / glucose in the hemolymph of honeybees after ingestion; assay type: in vivo; conditions: FIGS. 8A-8D, 9A-9B, 10A
Source text: (§1) These diagrams evidence the action of copper glyconate on the glycosemia of the honeybees after ingestion of increasing doses of this product.
(§2) FIG. 9A corresponds to experiments performed without administration of an inhibitor of trehalases
(§3) FIG. 9B is with administration of such an inhibitor.
(§4) FIG. 10A further evidences the variation of the glucosemia in the honeybees following the ingestion of copper glyconate.

Trehalases = assay: Activity of trehalases in the hemolymph of honeybees after ingestion; assay type: in vivo; conditions: FIGS. 8A-8D, 9A-9B, 10B, listed as copper glyconate
Source text: as §1, §2, §3, §4

honeybees [5] = assay: Acceptance of treated syrup by honeybees in full-size hives; assay type: in vivo; conditions: syrup of sucrose 66% w/w with copper gluconate
honeybees [6] = conditions: in vivo
Experimental: The determination of the amounts of copper inside the bodies of the honeybees is performed through atomic absorption on samples of 5 honeybees after crushing and centrifuging them, and analysis of the supernatant liquid.

honeybees [7] = assay: Lethality / noxiousness for the honeybees; conditions: 6.75 l of syrup per hive, 0.02 to 0.5 g/l copper gluconate

Molecule	Appetency, absolute value (honeybees [1]; 0,44 M.M.)	Appetency, absolute value (honeybees [1]; 1,1 M.M.)	Appetency, 1/1 COPPER GLUCONATE (honeybees [1])	Appetency, RELATIVE VALUES / PURE SUGAR SYRUP, AVERAGE (honeybees [1])	Appetency, RELATIVE VALUES / PURE SUGAR SYRUP, TEST 1 (honeybees [1])	Appetency, RELATIVE VALUES / PURE SUGAR SYRUP, TEST 2 (honeybees [1])	supplemental effects: production of honey, activity of cleaning the hives (honeybees [3])	also measured
NCC(=O)[O-].NCC(=O)[O-].[Cu+2] [Copper glycinate]	16,65 ± 5,01 microliters per honeybee and p	15,5 ± 5,03 microliters per honeybee and p	14,30 ± 3,52 microliters per honeybee and p	75,85%	78,0%	73,7%	–	–
CC(O)C(=O)[O-].CC(O)C(=O)[O-].[Cu+2] (stereo not drawn) [Copper lactate]	15,30 ± 4,24 microliters per honeybee and p	15,60 ± 4,34 microliters per honeybee and p	10,95 ± 3,54 microliters per honeybee and p	73,6%	72,4%	73,8%	–	–
O=S(=O)([O-])[O-].[Cu+2] [copper sulphate]	–	–	–	–	–	–	–	phagoinhibitive (anorectic) action on food intake (honeybees [2]): phagoinhibitive action
COPPER CITRATE	14,71 ± 4,25 microliters per honeybee and p	12,67 ± 3,96 microliters per honeybee and p	12,67 ± 3,96 microliters per honeybee and p	64,75%	69,5%	60,0%	–	–
Copper 1-aspartate	–	–	–	55,1%	76,5%	69,4%	–	Appetency, absolute value (honeybees [1]; 0,61 M.M.): 17,96 ± 7,20 microliters per honeybee and p; Appetency, absolute value (honeybees [1]; 1,54 M.M.): 14,68 ± 5,40 microliters per honeybee and p; Appetency, absolute value (honeybees [1]; 2,4 M.M.): 12,49 ± 5,11 microliters per honeybee and p
Copper 1-glutamate	16,18 ± 4,66 microliters per honeybee and p	16,64 ± 7,97 microliters per honeybee and p	11,56 ± 6,32 microliters per honeybee and p	77,6%	76,5%	78,7%	–	–
Copper Asparaginate	15,48 ± 4,32 microliters per honeybee and p	11,97 ± 3,34 microliters per honeybee and p	12,21 ± 4,29 microliters per honeybee and p	65,0%	73,2%	56,3%	–	water solubility (Solubility in water): 0,5%
Copper glucoheptonate	15,68 ± 2,35 microliters per honeybee and p	14,58 ± 3,16 microliters per honeybee and p	14,90 ± 3,64 microliters per honeybee and p	71,6%	74,2%	69,0%	A similar effect has been shown	water solubility (in words) (Solubility in water): very soluble
Copper gluconate	22,3 ± 2,5 microliters per honeybee and p	21,2 ± 2,6 microliters per honeybee and p	–	–	–	–	increases the production of honey	FALL OF THE VARROAS (Varroa jacobsoni; 0,2 g/l copper gluconate in syrup): 165,5 ± 84,1; FALL OF THE VARROAS (Varroa jacobsoni; 0,5 g/l copper gluconate in syrup): 207 ± 172; FALL OF THE VARROAS (Varroa jacobsoni; 1 g/l copper gluconate in syrup): 109 ± 141; destroying of the Varroas (in words) (Varroa jacobsoni; in vivo): efficient even at low doses; syrup absorbed per hive when fall of Varroas begins to be significative vs control hives (Varroa jacobsoni; per hive, in 10 days): 3 L; appetency of the honeybees (in words) (honeybees [1]; sucrose syrup 66% w/w, FIGS. 7A-7C, comparison with copper sulphate): great appentency of the honeybees; glycosemia / concentration of glucose in the hemolymph of the honeybees [4]: a momentaneous and significative increase of the glycosemia in the honeybees; glycosemia / concentration of glucose in the hemolymph of the honeybees ([4]; listed as copper glyconate): increase in the concentration of glucose; activity / concentration of trehalases in the hemolymph (Trehalases): increase of the activity of the Trehalases; also recorded: increase in the concentration of glucose and trehalases in the hemolymph; supplemental effects: production of honey, activity of cleaning the hives (honeybees [3]; listed as copper glyconate): increase in the activity of cleaning the hives; ingestion of the syrup by the honeybees in hives (honeybees [5]): The whole amount of syrup made available to the honeybees was absorbed every day; also recorded: totally ingested; storage of copper inside the body of the honeybees (honeybees [6]): does not incur any storage of copper inside the body of the honeybees; percentage of lethality in the honeybees compared to controls (honeybees [7]): no increase in the percentage of lethality in the honeybees
Copper gluconate/glucoheptonate	–	–	–	–	–	–	A similar effect has been shown	–
Copper gluconate/glutamate	–	–	–	–	–	–	A similar effect has been shown	–
Copper isoleucinate	–	–	–	71,55%	78,9%	64,2%	–	Appetency, absolute value (honeybees [1]; 0,61 M.M.): 16,69 ± 5,03 microliters per honeybee and p; Appetency, absolute value (honeybees [1]; 1,54 M.M.): 13,57 ± 5,77 microliters per honeybee and p; Appetency, absolute value (honeybees [1]; 2,4 M.M.): 13,79 ± 5,73 microliters per honeybee and p; water solubility (Solubility in water): 1%
Copper leucinate	15,83 ± 4,53 microliters per honeybee and p	13,02 ± 2,42 microliters per honeybee and p	13,02 ± 2,42 microliters per honeybee and p	67,8%	74,0%	61,6%	–	water solubility (Solubility in water): 1%

From patent publication US5023359A, “Use of organic salts of copper for the treatment of honeybee's parasitic diseases” (priority 1990, dated 1991)
